In one assay the test system is A. baumannii strain 78. The experiment in a line: Absorbance growth curves on increasing concentration of the electron transfer mediator. It is filed as cell-based, Acinetobacter baumannii. Conditions: PMS concentrations higher than 15 μM; MH media; FIG. 3B. As for the experimental part:
[…] The wells were inoculated to 0.1 OD600 for a total volume of 200 μL. The plates were continuously mixed by an orbital motion and maintained at 37° C. or 30° C. for S. aureus and oxacillin. Absorbance growth curves were recorded at 600 nm for 24 h and growth curves were presented as the average of three technical replicates with standard deviation.
Error bars represent standard deviation of three replicates. With this PMS concentration of 15 μM, Gram-negative species of bacteria with OD600=0.1 (approximately 10^7 and 10^8 cells per mL; Table 2) consistently had analysis times in less than 90 min, as illustrated by FIG. 3C. The current magnitude is shown to increase with increasing cell density while the response time is seen to be decreased with increasing cell density. Error bars are the standard deviation of four replicates in FIG. 3C. Increasing the cell density also contributed to the “inoculum effect” of antibiotic efficacy resulting in the need for higher concentrations of antibiotics to differentiate sensitive and resistant strains.

Assay [1] concerns Gram-positive 1 ATCC 29213, Gram-positive 2 BAA-1026. The assay can be described thus: READAS operator blinded test. The assay is classed as cell-based. The settings on record: oxacillin 2× (12 μg/mL); for ASIn: OD600=0.1. As for the experimental part: Tests were conducted for which the species or resistance phenotype was not known beyond the fact that one set was a Gram-positive and the other Gram-negative, and the antibiotics to be tested were oxacillin and imipenem, respectively. The isolates were provided as coded streak plates. Because the species were unknown, the breakpoint concentration of oxacillin and imipenem were estimated from the known breakpoints of the four previously tested strains (as shown in Table 1; 6 μg/mL for oxacillin, S. aureus and 6 μg/mL imipenem for Gram-negative strains). Following the decision methodology for determining antibiotic susceptibility and resistance of READAS, the strains were first tested with 2× the resistance breakpoint concentration (12 μg/mL oxacillin or imipenem) and the ASI2 was measured. This was increased up to 24× the resistance breakpoint concentration. If ASI2≥0.4 then the strain was considered susceptible. […] If neither strain achieved an ASI2≥0.4, 24× the resistance breakpoint concentration was tested and the ASI24 was measured.
As another example method of operation, operator blinded tests were conducted using susceptible and resistant strains of Gram-positive and -negative bacteria. Because the species identification was unknown, […] oxacillin was chosen as the estimated resistance breakpoint for the Gram-positive strain and 6 μg/mL imipenem was initially chosen as the resistance breakpoint for the Gram-negative strain. The stains selected for this example method of operation include Gram-positive 1 ATCC 29213, Gram-positive 2 BAA-1026, Gram-negative 1 AR55 and Gram-negative 2 AR58 with cultures of OD600=0.1, for simplicity.
(§1) Both Gram-positive strains were correctly classified using 2×(12 μg/mL oxacillin) in <120 min (97±45 min and 103±33 min). The Gram-negative strains were also correctly classified after increasing concentrations of imipenem from 2× to 20×(12 to 120 μg/mL imipenem). […] These phenotypic results were confirmed with results of standard procedure known to those skilled in the art and are included in Table 4 below, wherein READAS(S) susceptibility was defined by an ASIn≥0.4; (R) resistant was defined by an ASIn<0.4; analysis time shown in minutes. The standard procedure established susceptibility or resistance, MIC in μg/mL, and analysis time shown in hours.

Assay [2] deals with Staphylococcus aureus (strains 29213 and 43300). The experiment in a line: READAS electrochemical current response with PMS mediator (ASIn). It is filed as cell-based. Conditions: for ASIn (antibiotic susceptibility index), single replicates: oxacillin 20× breakpoint (120 μg/mL), ASI20, 30° C., 15 μM PMS, 0.1 OD600. As for the experimental part:
Each measurement was replicated at least four times.
(S. aureus experiments) or 37° C. (all others) MH media.
The current responses measured follows a sigmoidal curve structure.
As a second example method of operation, the S. aureus strains selected from Table 2 were assessed. Initially, a 2×CLSI resistance breakpoint concentrations for two antibiotics oxacillin (12 μg/mL) and tobramycin (32 μg/mL) were used for the example method of operation. The ASI2<0.4 and it was concluded that the concentration of the antibiotics was insufficient to classify the strains as antibiotic-susceptible or -resistant. S. aureus was then treated with 4×, 6×, 8×, 10×, and 20× the breakpoint concentration of oxacillin and was compared to the control as depicted in FIG. 8A. […] S. aureus was also treated with 4× and 10× the breakpoint concentration of tobramycin and was compared to the control depicted in FIG. 8B. […] The efficacy of antibiotic was proportional to the concentration when a high cell density (1.1×10^8 CFU/mL) was used.
The ASIn analysis time for classifying the strains as resistant or susceptible for tobramycin treatment was 33-78 min which was 30 min less than needed for detecting oxacillin susceptibility which required 60-96 min.

Assay [3] has the same test system. The experiment in a line: Microdilution antibiotic susceptibility assay (MIC, CLSI guidelines). It is filed as cell-based. The settings on record: for MIC: Staphylococcus aureus, MH media, oxacillin: 30° C., 18-24 h, 2% NaCl, read-out: estimated minimum inhibitory concentration from this study. Here is the method: Testing for S. aureus susceptibility to oxacillin differed with incubation at 30° C. for 18-24 h in MH media supplemented with 2% NaCl.
Values listed in Table 2 below include the estimated minimum inhibitory concentration from this study (μg/mL), the determination of(S) sensitive or (R) resistant microbes according to CLSI criteria, and the CLSI guidelines (μg/mL) for the species being tested. Empty cells were not evaluated.

For assay [4] the test system is unchanged. The settings on record: cited from earlier work.
The test system of assay [5] is Gram-positive 1 ATCC 29213, Gram-positive 2 BAA-1026. The experiment in a line: Standard procedure confirming blinded test (susceptibility, MIC, analysis time). The assay is classed as cell-based. Also on record: key to Standard procedure susceptibility or resistance (second symbol of cell): S: The standard procedure established susceptibility or resistance; R: The standard procedure established susceptibility or resistance. Here is the method:
as §1

Converted amounts (≈) assume the structure as drawn. “And” between values parts separate entries of the source, which are not always exact repeats. Equal values may be shown once. Read-outs that look alike come from different tables or passages of the source. Marks after values point to notes of the source that are not given here. A value given as a limit tells only on which side of the number the result lay.

Take `COS(=O)(=O)[O-].C[n+]1c2ccccc2nc2ccccc21` [PMS, phenazine methosulfate]: the “inhibition of bacterial growth by the electron transfer mediator” value in the assay with A. baumannii strain 78 was “higher concentrations produced variable degrees of inhibition between strains”.
`Cc1onc(-c2ccccc2)c1C(=O)N[C@@H]1C(=O)N2[C@@H]1SC(C)(C)[C@@H]2C(=O)O` [Oxacillin, oxacillin]: the “READAS susceptibility (first symbol of cell)” value in assay [1] (Gram-positive 1 (ATCC 29213)) is “S/S (READAS(S) susceptibility was defined by an ASIn≥0.4)”; in assay [1] (Gram-positive 2 (BAA-1026)) it was “R/R ((R) resistant was defined by an ASIn<0.4)”. In addition, the ASIn in assay [1] (Gram-positive 1 (ATCC 29213)) is given as 0.55 ± 0.14^b; in assay [1] (Gram-positive 2 (BAA-1026)), −0.04 ± 0.19^b. The “current response with increasing antibiotic concentration” value in assay [2] (oxacillin 4×, 6×, 8×, 10×, 20× breakpoint (FIG. 8A), tobramycin 4× and 10× (FIG. 8B), […]10^8 CFU/mL) is on record as “decreased with increasing oxacillin concentration except at low doses where no effect or an increase in the current is observed”. Moreover, the “ASIn (antibiotic susceptibility index), single replicates” value in assay [2] (strain 29213 (susceptible)) is 0.4 and 0.63 and 0.59; in assay [2] (strain 43300 (resistant)), 0.4 and 0.63 and 0.59. Besides, the “average ASI20 (±SE)” value in assay [2] (strain 43300 (resistant), oxacillin 20× (120 μg/mL)) was determined as 0.17±0.13. Also, the MIC in assay [3] (strain 29213) is 0.5 µg/mL (≈ 1.25 µM); in assay [3] (strain 43300), 32 µg/mL (≈ 79.7 µM); in assay [5] (Gram-positive 1 (ATCC 29213)), 0.5 µg/mL (≈ 1.25 µM); in assay [5] (Gram-positive 2 (BAA-1026)) it was not below 4 µg/mL. In addition, the “sensitive or resistant according to CLSI criteria” value was “S” in assay [3] (strain 29213) and “R” in assay [3] (strain 43300). In addition, the “CLSI guidelines (resistance breakpoint) for the species” value in assay [4] was 6 µg/mL. The “Standard procedure susceptibility or resistance (second symbol of cell)” value in assay [5] (Gram-positive 1 (ATCC 29213)) is “S/S”; in assay [5] (Gram-positive 2 (BAA-1026)), “R/R”.

The values above are taken from patent US20240426776A1, “RAPID DIFFERENTIATION OF ANTIBIOTIC-SUSCEPTIBLE AND -RESISTANT BACTERIA THROUGH MEDIATED EXTRACELLULAR ELECTRON TRANSFER” (priority 2021, published 2024).
